The numbers were not newly measured in PMC5666773, “Human Immunodeficiency Virus Proteins Mimic Human T Cell Receptors Inducing Cross-Reactive Antibodies” (International Journal of Molecular Sciences, 2017), which cites them from elsewhere.

The series addresses naturally circulating anti-insulin. The note with it: healthy human beings and cats; no clinical effect; read-out: naturally circulating anti-insulin binding.

For insulin, the Kd is around 10 µM.
